In test [1] the target is GDP-bound HRAS wild-type protein (Homo sapiens, UniProt P01112). As to the kind of experiment: Binding to HRAS by surface plasmon resonance (SPR), Single Cycle Kinetics. To be noted: SPR. (In general: In SPR one partner is held on a chip, and binding of the other changes the refractive index at the surface.)
Test [2] has as its target GDP-bound NRAS wild-type protein (Homo sapiens, UniProt P01111). As to the kind of experiment: Binding to NRAS by surface plasmon resonance (SPR), Single Cycle Kinetics. Conditions: SPR.
The mark [3] stands for this setting: GDP-bound HRAS wild-type vs GDP-bound KRAS wild-type.
[4] abbreviates: GDP-bound NRAS wild-type vs GDP-bound KRAS wild-type.

Consider seven compounds from patent US20250230193A1, “CYCLIC COMPOUND HAVING SELECTIVE KRAS INHIBITORY EFFECT ON HRAS AND NRAS” (CHUGAI SEIYAKU KABUSHIKI KAISHA, priority 2022, published 2025).

Where a SMILES comes first, the peptide text is derived from it. Bridges are numbered along the chain shown (N, C = ends). [ ]: non-standard residue; d: D form. The star is where a group is joined. hPhe(3-Cl-4-CF3) = N[C@@H](CCc1ccc(C(F)(F)F)c(Cl)c1)C(=O)O; NPrPhe(4-CF3) = CCCN[C@@H](Cc1ccc(C(F)(F)F)cc1)C(=O)O; NMePhe(4-Me) = CN[C@@H](Cc1ccc(C)cc1)C(=O)O; NMeGly(cPent) = CN[C@H](C(=O)O)C1CCCC1; Hyp = O=C(O)[C@@H]1C[C@@H](O)CN1; NMeD = CN[C@@H](CC(=O)O)C(=O)O; NMeL = CN[C@@H](CC(C)C)C(=O)O; Morpholide = C1CN(*)CCO1; NMeA = CN[C@@H](C)C(=O)O; Ac5c = NC1(C(=O)O)CCCC1; Aze = O=C(O)[C@@H]1CCN1; NPrGly = CCCNCC(=O)O; Sar = CNCC(=O)O

GDP-bound HRAS wild-type protein, sequence (P01112 whole entry): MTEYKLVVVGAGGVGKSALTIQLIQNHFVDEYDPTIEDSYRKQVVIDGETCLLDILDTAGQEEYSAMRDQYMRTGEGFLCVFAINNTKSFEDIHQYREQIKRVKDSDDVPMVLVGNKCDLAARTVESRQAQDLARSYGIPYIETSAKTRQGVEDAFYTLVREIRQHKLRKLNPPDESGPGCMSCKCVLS
GDP-bound NRAS wild-type protein, sequence (P01111 whole entry): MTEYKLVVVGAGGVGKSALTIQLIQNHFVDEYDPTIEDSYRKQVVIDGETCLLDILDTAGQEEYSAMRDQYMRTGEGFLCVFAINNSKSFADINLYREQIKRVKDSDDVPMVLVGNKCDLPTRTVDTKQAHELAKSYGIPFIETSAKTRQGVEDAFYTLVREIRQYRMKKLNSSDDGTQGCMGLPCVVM

Take `CC[C@H](C)[C@@H]1NC(=O)[C@H](CC(C)C)N(C)C(=O)C[C@@H](C(=O)N2CCOCC2)N(C)C(=O)[C@H](C2CCCC2)N(C)C(=O)C2(CCCC2)NC(=O)[C@@H]2CCCN2C(=O)[C@H](CCc2ccc(C(F)(F)F)c(Cl)c2)NC(=O)CN(C)C(=O)[C@H](Cc2ccc(F)cc2)N2CCCCC[C@@H](C2=O)N(C)C(=O)CN(C)C1=O` [PP0612]: in test [1] (KD ratio HRAS/KRAS), the “HRAS/KRAS (ratio of KD value with respect to GDP-bound HRAS wild-type protein to KD value with respect to KRAS)” value was “B (a compound having 3 or more and less than 10 is denoted as B)”. Besides, the “NRAS/KRAS (ratio of KD value with respect to GDP-bound NRAS wild-type protein to KD value with respect to KRAS)” value in test [2] (KD ratio NRAS/KRAS) is “B (a compound having 3 or more and less than 10 is denoted as B)”.
For `CC[C@H](C)[C@@H]1NC(=O)[C@H](CC(C)C)N(C)C(=O)C[C@@H](C(=O)N(C)C)N(C)C(=O)[C@H](C2CCCC2)N(C)C(=O)C2(CCC2)NC(=O)[C@@H]2C[C@H](C)CN2C(=O)[C@H](CCc2ccc(C(F)(F)F)c(Cl)c2)NC(=O)CN(C)C(=O)[C@H](Cc2ccc(C)cc2)N2CC/C=C\C[C@@H](C2=O)N(C)C(=O)CN(C)C1=O` [PP1852], the “HRAS/KRAS (ratio of KD value for HRAS to KD value for KRAS)” value in test [1] (setting [3]) is “B (a compound having 3 or more and less than 10 is denoted as B)”. In addition, the “NRAS/KRAS (ratio of KD value for NRAS to KD value for KRAS)” value in test [2] (setting [4]) is “A (a compound having 10 or more and less than 20 is denoted as A)”.
Turning to `CCCN1CC(=O)N(C)[C@@H](Cc2ccc(C)cc2)C(=O)N(C)CC(=O)N[C@@H](CCc2ccc(C(F)(F)F)c(Cl)c2)C(=O)N2CCC[C@H]2C(=O)NC2(CCCC2)C(=O)N(C)[C@@H](C2CCCC2)C(=O)N(C)[C@H](C(=O)N2CCOCC2)CC(=O)N(C)[C@@H](CC(C)C)C(=O)N[C@@H]([C@@H](C)CC)C(=O)N(C)CC1=O` [PP0020] ([NMeL]I[Sar][NPrGly][NMePhe(4-Me)][Sar][hPhe(3-Cl-4-CF3)]P[Ac5c][NMeGly(cPent)][NMeD]-Morpholide; lactam N-11), the “HRAS/KRAS (ratio of KD for GDP-bound HRAS wild-type to KD for KRAS)” value in test [1] (KD ratio HRAS/KRAS) was “C (A compound having a KD ratio of 0.1 or more and less than 3 is denoted as C)”. Besides, the “NRAS/KRAS (ratio of KD for GDP-bound NRAS wild-type to KD for KRAS)” value in test [2] (KD ratio NRAS/KRAS) is “C (A compound having a KD ratio of 0.1 or more and less than 3 is denoted as C)”.
`CCCN1C(=O)[C@@H]2CCN2C(=O)[C@H](C)N(C)C(=O)[C@H]([C@@H](C)CC)NC(=O)[C@H](CC(C)C)N(C)C(=O)C[C@@H](C(=O)N(C)C)NC(=O)[C@H](C2CCCC2)N(C)C(=O)C2(CCCC2)NC(=O)[C@@H]2C[C@@H](OCC)CN2C(=O)[C@H](CCc2ccc(C(F)(F)F)c(Cl)c2)NC(=O)CN(C)C(=O)[C@@H]1Cc1ccc(C(F)(F)F)cc1` [PP0383] ([NMeL]I[NMeA][Aze][NPrPhe(4-CF3)][Sar][hPhe(3-Cl-4-CF3)][Hyp](Et)[Ac5c][NMeGly(cPent)]D-NMe2; lactam N-11): the “HRAS/KRAS (ratio of KD for GDP-bound HRAS wild-type to KD for KRAS)” value in test [1] (KD ratio HRAS/KRAS) was “B (a compound having 3 or more and less than 10 is denoted as B)”. Moreover, the “NRAS/KRAS (ratio of KD for GDP-bound NRAS wild-type to KD for KRAS)” value in test [2] (KD ratio NRAS/KRAS) is “C (A compound having a KD ratio of 0.1 or more and less than 3 is denoted as C)”.
`CC[C@H](C)[C@@H]1NC(=O)[C@H](CC(C)C)N(C)C(=O)C[C@@H](C(=O)N(C)C)N(C)C(=O)[C@H](C2CCCC2)N(C)C(=O)C2(CCC2)N(C)C(=O)[C@@H]2CCCN2C(=O)[C@H](CCc2cc(F)c(C(F)(F)F)c(F)c2)NC(=O)CN(C)C(=O)[C@H](Cc2ccc(C)cc2)N2CC/C=C\C[C@@H](C2=O)N(C)C(=O)CN(C)C1=O` [PP1791]: the “HRAS/KRAS (ratio of KD value for HRAS to KD value for KRAS)” value in test [1] (setting [3]) was “A (a compound having 10 or more and less than 20 is denoted as A)”. Also, the “NRAS/KRAS (ratio of KD value for NRAS to KD value for KRAS)” value in test [2] (setting [4]) was “A (a compound having 10 or more and less than 20 is denoted as A)”.
As for `CC[C@H](C)[C@@H]1NC(=O)[C@H](CC(F)(F)F)N(C)C(=O)C[C@@H](C(=O)N(C)C)N(C)C(=O)[C@H](C2CCCC2)N(C)C(=O)C2(CC(C)(C)C2)NC(=O)[C@@H]2C[C@H](C)CN2C(=O)[C@H](CCc2cc(F)c(C(F)(F)F)c(F)c2)NC(=O)CN(C)C(=O)[C@H](Cc2ccc(C(F)(F)F)cc2)N2CC/C=C\C[C@@H](C2=O)N(C)C(=O)CN(C)C1=O` [PP1682], the “HRAS/KRAS (ratio of KD value for HRAS to KD value for KRAS)” value in test [1] (setting [3]) was “A (a compound having 10 or more and less than 20 is denoted as A)”. In test [2] (setting [4]), the “NRAS/KRAS (ratio of KD value for NRAS to KD value for KRAS)” value is listed as “AA (a compound having 20 or more is denoted as AA)”.
As for `CCOC[C@H]1C(=O)N[C@@H]([C@@H](C)CC)C(=O)N2CCC[C@H]2C(=O)N(C)[C@H]2C/C=C\CCN(C2=O)[C@@H](CC2CCCCC2)C(=O)N(C)CC(=O)N[C@@H](CCc2ccc(C(F)(F)F)c(OC)c2)C(=O)N2C[C@@H](C)C[C@H]2C(=O)N(C)C2(CCC2)C(=O)N(C)[C@@H](C2CCCC2)C(=O)N(C)[C@H](C(=O)N(C)C)CC(=O)N1C` [PP2375], the “HRAS/KRAS (ratio of KD value with respect to HRAS to KD value with respect to KRAS)” value in test [1] (setting [3]) was “B (a compound having 3 or more and less than 10 is denoted as B)”. Also, the “NRAS/KRAS (ratio of KD value with respect to NRAS to KD value with respect to KRAS)” value in test [2] (setting [4]) is “A (a compound having 10 or more and less than 20 is denoted as A)”.
